# Results from patent US20100056524A1, “Compound” (priority 2008, published 2010).
# Counter-ions that a name gives are not always drawn.
# Target: T1, TBK1 (Homo sapiens, UniProt Q9UHD2)
# T1 construct: All protein kinases were of human origin and encoded full length proteins, unless indicated otherwise; His6; made in house; host or cells: insect Sf21 cells
# T1 sequence (Q9UHD2 1-729): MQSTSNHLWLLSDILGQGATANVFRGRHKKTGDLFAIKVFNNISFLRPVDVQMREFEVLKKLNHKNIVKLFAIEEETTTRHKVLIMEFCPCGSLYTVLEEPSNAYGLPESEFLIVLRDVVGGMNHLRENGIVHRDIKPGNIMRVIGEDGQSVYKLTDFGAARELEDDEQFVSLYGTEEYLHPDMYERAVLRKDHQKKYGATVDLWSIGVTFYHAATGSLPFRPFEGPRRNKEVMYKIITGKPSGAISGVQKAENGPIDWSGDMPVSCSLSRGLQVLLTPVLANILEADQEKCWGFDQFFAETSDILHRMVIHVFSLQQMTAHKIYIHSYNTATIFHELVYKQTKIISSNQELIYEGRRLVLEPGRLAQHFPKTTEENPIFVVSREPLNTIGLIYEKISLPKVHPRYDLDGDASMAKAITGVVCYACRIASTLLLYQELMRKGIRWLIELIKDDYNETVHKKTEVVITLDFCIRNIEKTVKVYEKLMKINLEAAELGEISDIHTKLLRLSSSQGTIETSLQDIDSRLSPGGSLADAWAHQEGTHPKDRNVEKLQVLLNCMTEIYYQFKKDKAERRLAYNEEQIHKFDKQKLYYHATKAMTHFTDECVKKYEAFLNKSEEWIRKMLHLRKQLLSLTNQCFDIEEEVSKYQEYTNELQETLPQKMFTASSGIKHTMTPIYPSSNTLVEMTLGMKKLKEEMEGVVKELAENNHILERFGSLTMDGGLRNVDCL
# Assay: TBK1 protein kinase assay ([γ-33P]ATP, P81 filterplates)
# Type: biochemical
# Details: 50 μM ATP; read-out: Potency (TBK1 IC50 potency score)
# From the text: All protein kinases were of human origin and encoded full length proteins, unless indicated otherwise. They were either expressed as glutathione S-transferase (GST) fusion proteins in Escherichia Coli or as hexahistidine (His6)-tagged proteins in insect Sf21 cells. GST fusion proteins were purified by affinity chromatography on glutathione-Sepharose, and His6-tagged proteins on nickel/nitriloacetate-agarose. The procedures for expressing some of the protein kinases used herein have been detailed previously.^8,9 The following sections outline the DNA vectors synthesised and the procedures used to express and purifying protein kinases that have not been reported previously.
# The following kinases were expressed in Sf21 cells: Aurora B and Aurora C, extra-cellular signal-regulated kinase 8 (ERK8), microtubule affinity regulating kinase 3 (MARK3), protein kinase Bα[118-480][S473D], protein kinase Bβ (PKBβ[120-481][S474D], 3-phosphoinositide-dependent protein kinase-1 [52-556]
# Assays were performed for 30 min using Multidrop Micro reagent dispensers (Thermo Electron Corporation, Waltham, Mass. 02454, USA) in a 96-well format. The concentration of magnesium acetate in the assays was 10 mM and the [γ-33P] ATP (800 cpm/pmol) was used at 5, 20 or 50 μM as indicated, in order to be at or below the Km for ATP for each enzyme. Protein kinases assayed at 5 μM ATP were: —ERK1, ERK8, PKBα, MARK3, Aurora C. Protein kinases assayed at 20 μM ATP were: —JNK1, PDK1, CHK1, CHK2, CDK2 and Aurora B. Protein kinases assayed at 50 μM ATP were: —MNK2, IKKepsilon and TBK1.
# The assays were initiated with MgATP, stopped by addition of 5 μl of 0.5 M orthophosphoric acid and spotted on to P81 filterplates using a unifilter harvester (PerkinElmer, Boston, Mass. 02118, USA). The IC50 values of inhibitors were determined after carrying out assays at 10 different concentrations of each compound.
# ERK1 and ERK8 were both assayed against myelin basic protein (MBP, 0.33 mg/ml). MARK3 was assayed against the peptide […] (300 μM), MNK2 against the eIF4E protein (0.5 mg/ml). PKBβ was assayed against the peptide […] (30 μM). TBK1 were assayed against ([…]) (300 μM). The substrates used for other protein kinases were described previously.^8,9
# Unless stated otherwise, enzymes were diluted in 50 mM Tris/HCl pH 7.5, 0.1 mM EGTA, 1 mg/ml BSA, 0.1% (v/v) 2-mercaptoethanol and assayed in 50 mM Tris/HCl pH 7.5, 0.1 mM EGTA, 0.1% (v/v) 2-mercaptoethanol.
row,SMILES,IC50 [nM]
1,"CC(C)C(=O)NCCCNc1nc(Nc2cccc(F)c2)ncc1C1CC1 [Example 2, N-{3-[5-Cyclopropyl-2-(3-fluoro-phenylamino)-pyrimidin-4-ylamino]-propyl}-isobutyramide trifluoroacetic acid salt]",< 100
2,"O=C(NCCCNc1nc(Nc2cccc(F)c2)ncc1C1CC1)C1CCCCC1 [Example 3, Cyclohexanecarboxylic acid {3-[5-cyclopropyl-2-(3-fluoro-phenylamino)-pyrimidin-4-ylamino]-propyl}-amide trifluoroacetic acid salt]",< 100
3,"CN(C)CC(=O)NCCCNc1nc(Nc2cccc(F)c2)ncc1C1CC1 [Example 4, N-{3-[5-Cyclopropyl-2-(3-fluoro-phenylamino)-pyrimidin-4-ylamino]-propyl}-2-dimethylamino-acetamide trifluoroacetic acid salt]",100 to 1000
4,"O=C(CC1CCCC1)NCCCNc1nc(Nc2cccc(F)c2)ncc1C1CC1 [Example 6, 2-Cyclopentyl-N-{3-[5-cyclopropyl-2-(3-fluoro-phenylamino)-pyrimidin-4-ylamino]-propyl}-acetamide trifluoroacetic acid salt]",< 100
5,"Cc1oncc1C(=O)NCCCNc1nc(Nc2cccc(F)c2)ncc1C1CC1 [Example 8, 5-Methyl-isoxazole-4-carboxylic acid{3-[5-cyclopropyl-2-(3-fluoro-phenylamino)-pyrimidin-4-ylamino]-propyl}-amide trifluoroacetic acid salt]",< 100
6,"O=C(NCCCNc1nc(Nc2cccc(F)c2)ncc1C1CC1)c1nc[nH]n1 [Example 9, 1H-1,2,4-Triazole-3-carboxylic acid {3-[5-cyclopropyl-2-(3-fluoro-phenylamino)-pyrimidin-4-ylamino]-propyl}-amide trifluoroacetic acid salt]",100 to 1000
7,"Cn1cnc(C(=O)NCCCNc2nc(Nc3cccc(F)c3)ncc2C2CC2)c1 [Example 10, 1-Methyl-1H-imidazole-4-carboxylic acid {3-[5-cyclopropyl-2-(3-fluoro-phenylamino)-pyrimidin-4-ylamino]-propyl}-amide trifluoroacetic acid salt]",1000 to 10000
8,"Cc1n[nH]c(C)c1C(=O)NCCCNc1nc(Nc2cccc(F)c2)ncc1C1CC1 [Example 13, 3,5-Dimethyl-1H-pyrazole-4-carboxylic acid {3-[5-cyclopropyl-2-(3-fluoro-phenylamino)-pyrimidin-4-ylamino]-propyl}-amide]",1000 to 10000
9,"O=C(NCCCNc1nc(Nc2cccc(F)c2)ncc1C1CC1)C1CCOC1 (stereo not shown) [Example 14, Tetrahydro-furan-3-carboxylic acid {3-[5-cyclopropyl-2-(3-fluoro-phenylamino)-pyrimidin-4-ylamino]-propyl}-amide]",< 100
10,"O=C(NCCCNc1nc(Nc2cccc(F)c2)ncc1C1CC1)C1CCCO1 (stereo not shown) [Example 15, Tetrahydro-furan-2-carboxylic acid {3-[5-cyclopropyl-2-(3-fluoro-phenylamino)-pyrimidin-4-ylamino]-propyl}-amide]",100 to 1000
11,"Cn1ccnc1C(=O)NCCCNc1nc(Nc2cccc(F)c2)ncc1C1CC1 [Example 18, 1-Methyl-1H-imidazole-2-carboxylic acid {3-[5-cyclopropyl-2-(3-fluoro-phenylamino)-pyrimidin-4-ylamino]-propyl}-amide]",1000 to 10000
12,"O=C(NCCCNc1nc(Nc2cccc(F)c2)ncc1C1CC1)c1cocn1 [Example 19, Oxazole-4-carboxylic acid {3-[5-cyclopropyl-2-(3-fluoro-phenylamino)-pyrimidin-4-ylamino]-propyl}-amide]",100 to 1000

# The next lines start with the values.
row,IC50 [nM],SMILES
1,100 to 1000,"CC(=O)NCCCNc1nc(Nc2cccc(F)c2)ncc1C1CC1 [Example 1, N-{3-[5-Cyclopropyl-2-(3-fluoro-phenylamino)-pyrimidin-4-ylamino]-propyl}-acetamide trifluoroacetic acid salt]"
2,100 to 1000,"O=C(NCCCNc1nc(Nc2cccc(F)c2)ncc1C1CC1)c1ccco1 [Example 5, Furan-2-carboxylic acid{3-[5-cyclopropyl-2-(3-fluoro-phenylamino)-pyrimidin-4-ylamino]-propyl}-amide trifluoroacetic acid salt]"
3,100 to 1000,"O=C(NCCCNc1nc(Nc2cccc(F)c2)ncc1C1CC1)c1ccn[nH]1 [Example 7, 2H-Pyrazole-3-carboxylic acid {3-[5-cyclopropyl-2-(3-fluoro-phenylamino)-pyrimidin-4-ylamino]-propyl}-amide trifluoroacetic acid salt]"
4,< 100,"O=C(NCCCNc1nc(Nc2cccc(F)c2)ncc1C1CC1)c1cncs1 [Example 11, Thiazole-5-carboxylic acid {3-[5-cyclopropyl-2-(3-fluoro-phenylamino)-pyrimidin-4-ylamino]-propyl}-amide]"
5,100 to 1000,"Cc1ccc(C(=O)NCCCNc2nc(Nc3cccc(F)c3)ncc2C2CC2)s1 [Example 12, 5-Methyl-thiophene-2-carboxylic acid {3-[5-cyclopropyl-2-(3-fluoro-phenylamino)-pyrimidin-4-ylamino]-propyl}-amide]"
6,100 to 1000,"Cn1cccc1C(=O)NCCCNc1nc(Nc2cccc(F)c2)ncc1C1CC1 [Example 16, 1-Methyl-1H-pyrrole-2-carboxylic acid {3-[5-cyclopropyl-2-(3-fluoro-phenylamino)-pyrimidin-4-ylamino]-propyl}-amide]"
7,< 100,"O=C(NCCCNc1nc(Nc2cccc(F)c2)ncc1C1CC1)c1ccsc1 [Example 17, Thiophene-3-carboxylic acid {3-[5-cyclopropyl-2-(3-fluoro-phenylamino)-pyrimidin-4-ylamino]-propyl}-amide]"
8,< 100,"O=C(NCCCNc1nc(Nc2cccc(F)c2)ncc1C1CC1)c1nccs1 [Example 20, Thiazole-2-carboxylic acid {3-[5-cyclopropyl-2-(3-fluoro-phenylamino)-pyrimidin-4-ylamino]-propyl}-amide]"
9,100 to 1000,"O=C(NCCCNc1nc(Nc2cccc(F)c2)ncc1C1CC1)c1ccc(Cl)s1 [Example 21, 5-Chloro-thiophene-2-carboxylic acid {3-[5-cyclopropyl-2-(3-fluoro-phenylamino)-pyrimidin-4-ylamino]-propyl}-amide]"

# Same assay, conditions: Table 5; 50 μM ATP; read-out: TBK1 IC50
row,IC50 [nM],SMILES
1,> 1000,"CC(C)c1cnc(Nc2cccc(F)c2)nc1NCCCNC(=O)C1CCC1 [Compound B, cyclobutanecarboxylic acid {3-[2-(3-fluoro-phenylamino)-5-isopropyl-pyrimidin-4-ylamino]-propyl}-amide, reference compound]"
2,> 1000,"O=C(NCCCNc1nc(Nc2cccc(F)c2)ncc1CC1CC1)C1CCC1 [Compound C, cyclobutanecarboxylic acid {3-[5-cyclopropylmethyl-2-(3-fluoro-phenylamino)-pyrimidin-4-ylamino]-propyl}-amide, reference compound]"
3,42,"CCc1cnc(Nc2cccc(F)c2)nc1NCCCNC(=O)C1CCC1 [Compound D, cyclobutanecarboxylic acid {3-[5-ethyl-2-(3-fluoro-phenylamino)-pyrimidin-4-ylamino]-propyl}-amide, reference compound]"

# Same assay, conditions: from TBK1 IC50 values of Table 5
row,fold loss in activity against TBK1 compared to Example 23 [fold],SMILES
1,10,"CCc1cnc(Nc2cccc(F)c2)nc1NCCCNC(=O)C1CCC1 [Compound D, cyclobutanecarboxylic acid {3-[5-ethyl-2-(3-fluoro-phenylamino)-pyrimidin-4-ylamino]-propyl}-amide, reference compound]"
